Converted amounts (≈) assume the structure as drawn. Read-outs that look alike come from different tables or passages of the source.
Legend:
Pseudo. aeruginosa 104 = assay: In vitro MIC, Pseudo. aeruginosa 104; assay type: cell-based, Pseudomonas aeruginosa; settings: unit assumed
Description: (§1) The in vitro spectra of a number of 6-[α-(ω-guanidinoalkanoylamido)acylamido]penicillanic acids of this invention against certain gram-negative bacteria are presented in Table I below. […] Th compounds of Table I have the formula

Pseudo. aeruginosa 490 = assay: In vitro MIC, Pseudo. aeruginosa 490; assay type: cell-based, Pseudomonas aeruginosa; settings: unit assumed
Description: as §1

Proteus vulgaris A059 = assay: In vitro MIC, Proteus vulgaris A059; assay type: cell-based; settings: unit assumed
Description: as §1

in vivo = settings: dog, im, 25 mg/kg
Proteus mirabilis C015 = assay: In vitro MIC, Proteus mirabilis C015; assay type: cell-based; settings: unit assumed
Description: as §1

S. aureus = assay: PD50 versus acute systemic S. aureus infection in mice; assay type: in vivo; settings: for ED50: Staphylococcus aureus, 96 h, S. aureus, mice
Description: (§2) Additionally, the compounds of this invention are active versus gram-positive and gram-negative bacteria in vivo via the parenteral route of administration in animals, including man. Their in vivo activity in animals, including man, by the oral route of administration is more limited as regards susceptible organisms. Nevertheless, oral in vivo activity against Escherichia coli and Staphylococcus aureus is a common property of many compounds of this invention. Table II below presents the comparative in vivo spectra of several compounds within the scope of this invention against D-α-aminobenzylpenicillin (Ampicillin).
(§3) The acute systemic infections in mice were produced by the intraperitoneal inoculation of standardized cultures suspended in 5% hog gastric mucin. Treatment with the drugs was initiated 0.5 hours after inoculation of the infecting organism. A second dose was administered 4 hours later. The PD50 values were calculated after a hold period of 4 days.

E. coli = assay: PD50 versus acute systemic E. coli infection in mice; assay type: in vivo; settings: for ED50: Escherichia coli, 96 h, E. coli, mice
Description: as §2, §3

E. coli 266 = assay: In vitro MIC, E. coli 266, two-fold serial dilution; assay type: cell-based, Escherichia coli; settings: unit assumed
Description: as §1

Serratia marcescens A001 = assay: In vitro MIC, Serratia marcescens A001; assay type: cell-based; settings: unit assumed
Description: as §1

Pseudo. aeruginosa 173 = assay: In vitro MIC, Pseudo. aeruginosa 173; assay type: cell-based, Pseudomonas aeruginosa; settings: unit assumed
Description: as §1

Escherichia coli 266 = assay: In vivo protection of mice versus Escherichia coli 266; settings: Escherichia coli, 266, sc, 96 h; 50 mg./kg., mice, subcutaneous route; read-out: % Protection
Description: as §2, §3

P. aeruginosa = assay: PD50 versus acute systemic P. aeruginosa infection in mice; assay type: in vivo; settings: mice; for ED50: Pseudomonas aeruginosa, 96 h, P. aeruginosa, read-out: PD50
Description: as §2, §3

Work on CC1(C)S[C@@H]2[C@H](NC(=O)[C@H](NC(=O)NC(=N)N)c3ccccc3)C(=O)N2[C@H]1C(=O)O [B, 6-[D-2-phenyl-2-(3-guanylureido)acetamido]penicillanic acid] yielded an MIC (Pseudo. aeruginosa 104) of 2.5 µg/mL (≈ 5.75 µM), an MIC (Pseudo. aeruginosa 490) of 1.5 µg/mL (≈ 3.45 µM) and an MIC (Proteus vulgaris A059) of 1.56 µg/mL (≈ 3.59 µM). The concentration at 0.5 h (in vivo) was 3500 ng/mL, the concentration at 1 h (in vivo) was 3600 ng/mL and the concentration at 2 h (in vivo) was 800 ng/mL. For the same compound, the MIC (Proteus mirabilis C015) was 0.78 µg/mL (≈ 1.8 µM), the ED50 (S. aureus; oral) was > 100 mg/kg and the ED50 (S. aureus; sc, subcutaneous) was 18 ± 9.8 mg/kg. For the same compound, the “in vivo oral activity against S. aureus (in words)” value (S. aureus; oral) was “lacks oral activity”, the ED50 (E. coli; oral) was > 200 mg/kg and the ED50 (E. coli; sc, subcutaneous) was 15 ± 6.5 mg/kg. The “in vivo oral activity against E. coli (in words)” value (E. coli; oral) was “lacks oral activity”, the MIC (E. coli 266) was 3.1 µg/mL (≈ 7.13 µM) and the MIC (Serratia marcescens A001) was 6.25 µg/mL (≈ 14.4 µM). For the same compound, the MIC (Pseudo. aeruginosa 173) was 1.5 µg/mL (≈ 3.45 µM), the responders at 50 mg/kg (Escherichia coli 266) was 100% and the ED50 (P. aeruginosa; oral) was > 200 mg/kg. The ED50 (P. aeruginosa; sc, subcutaneous) was 41 ± 13 mg/kg and the “activity against Pseudomonas aeruginosa (in words)” value (P. aeruginosa; in vivo) was “active”.
